# Source: patent US20040002842A1, “Methods and systems for analyzing complex biological systems” (priority 2001, published 2004)
# How the values were obtained:
# [1] = test system: Arabidopsis thaliana plants; test: SOA1 phenotypic analysis of herbicide-treated plants (incl. MIC/Tmic); format: in vivo; details: for leafCurling, Dev. / leafTwisting, Dev. / leafWidth, Dev. / matureLeafAnthocyanins, Dev. / matureLeafChlorosis, Dev. / matureLeafNecrosis, Dev. / newLeafAnthocyanins, Dev. / newLeafChlorosis, Dev. / newLeafNecrosis, Dev. / pointedLeaves, Dev.: herbicide sprayed on 21-day plants, numeric value standardized to mock treated; for tMic, Dev.: score for time to full symptoms at minimum inhibitory concentration; for characteristic symptoms (morphological phenotype): herbicide-treated plants
# Arabidopsis thaliana = test: MOA1 gene expression profiling (22,000 gene array); details: 1 hr; for Regulated Genes Following Herbicide Treatment: Down / Regulated Genes Following Herbicide Treatment: Up: p < 0.5; for No. of Lethal Genes Altered: regulated genes compared to list of essential (lethal) genes
Structure (SMILES),"leafCurling, Dev. [1]","leafTwisting, Dev. [1]","leafWidth, Dev. [1]","matureLeafAnthocyanins, Dev. [1]","matureLeafChlorosis, Dev. [1]","matureLeafNecrosis, Dev. [1]","newLeafAnthocyanins, Dev. [1]","newLeafChlorosis, Dev. [1]","newLeafNecrosis, Dev. [1]","pointedLeaves, Dev. [1]","tMic, Dev. [1]",characteristic symptoms (morphological phenotype) [1],further results
"O=C(O)COc1ccc(Cl)cc1Cl [2,4-D]",1,2,−1,1,2,0,0,1,0,0,2,–,Symptom Class ([1]; phenotype class of three-week-old treated plants (FIG. 12)): 5
O=C(O)c1cc(Oc2ccc(C(F)(F)F)cc2Cl)ccc1[N+](=O)[O-] [Acifluorfen],–,–,–,–,–,–,–,–,–,–,–,Necrotic leaf flecks,–
Nc1nc[nH]n1 [Amitrole],–,–,–,–,–,–,–,–,–,–,–,leaf bleaching and leaf enlargement,–
COC(=O)NS(=O)(=O)c1ccc(N)cc1 [Asulam],–,–,–,–,–,–,–,–,–,–,–,–,Regulated Genes Following Herbicide Treatment: Down (Arabidopsis thaliana): 7; Regulated Genes Following Herbicide Treatment: Up (Arabidopsis thaliana): 80; No. of Lethal Genes Altered (Arabidopsis thaliana): 5
CCNc1nc(Cl)nc(NC(C)C)n1 [Atrazine],–,–,–,–,–,–,–,–,–,–,–,rapid and widespread leaf necrosis,–
CC(C)N1C(=O)c2ccccc2NS1(=O)=O [Bentazon],–,–,–,–,–,–,–,–,–,–,–,rapid and widespread leaf necrosis,–
c1cc[n+]2c(c1)-c1cccc[n+]1CC2 [Diquat],2,0,−2,0,1,4,0,1,4,1,2,rapid and widespread leaf necrosis,–
CN(C)C(=O)Nc1ccc(Cl)c(Cl)c1 [Diuron],1,0,−2,0,2,4,0,2,4,1,1,rapid and widespread leaf necrosis,–
CCc1cnc(C2=NC(C)(C(C)C)C(=O)N2)c(C(=O)O)c1 (stereo not drawn) [Imazethapyr],–,–,–,–,–,–,–,–,–,–,–,anthocyanin accumulation in the older leaves accompanied by chlorosis of the newly emerging leaves,–
CSc1nnc(C(C)(C)C)c(=O)n1N [Metribuzin],–,–,–,–,–,–,–,–,–,–,–,rapid and widespread leaf necrosis,–
O=C(O)c1ccccc1C(=O)Nc1cccc2ccccc12 [Naptalam],–,–,–,–,–,–,–,–,–,–,–,–,Regulated Genes Following Herbicide Treatment: Down (Arabidopsis thaliana): 47; Regulated Genes Following Herbicide Treatment: Up (Arabidopsis thaliana): 50; No. of Lethal Genes Altered (Arabidopsis thaliana): 3
C[n+]1ccc(-c2cc[n+](C)cc2)cc1 [Paraquat],2,0,−1,0,1,4,0,1,4,1,2,rapid and widespread leaf necrosis,–
